# Columns and labels:
# [1] = molecular target: T1, ΔF508-CFTR (Homo sapiens, UniProt P13569, DEL508-508); experiment: CFTR cell surface levels using HRP-tagged ΔF508-CFTR expressing CFBE cells, in the presence of a co-corrector; type: cell-based
# T1 construct: host or cells: CFBE41o-, doxycycline-inducible
# Procedure, shortened: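 Cells were seeded with 0.5 μg/mL doxycycline and held 68 h at 37 °C. Test compounds plus 3 μM co-corrector (final 0.1% DMSO) were then added for 20 h at 33 °C. Washed cells received HRP substrate, and luminescence was normalized between DMSO and 3 μM co-corrector controls.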
# [2] = molecular target: T1, ΔF508-CFTR; experiment: CFTR cell surface levels using HRP-tagged ΔF508-CFTR expressing CFBE cells, intrinsic corrector capacity; type: cell-based
# Procedure, shortened: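 Here the cells express ΔF508-CFTR with horseradish peroxidase inserted in extracellular loop 4, so only rescued channel at the surface gives luminescent signal. Compounds act on their own, 20 h at the reduced temperature of 33 °C; values are percent activity relative to DMSO and a 3 μM corrector.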
# [3] = HRP-tagged ΔF508-CFTR expressing CFBE cells, in the presence of 3 μM co-corrector
# [4] = HRP-tagged ΔF508-CFTR expressing CFBE cells, in the presence of 3 μM co-corrector, read-out: EC50
# [5] = HRP-tagged ΔF508-CFTR expressing CFBE cells, intrinsic corrector capacity (no co-corrector), 33° C., 20 hours
# [6] = HRP-tagged ΔF508-CFTR expressing CFBE cells, intrinsic corrector capacity (no co-corrector), 33° C., 20 hours, read-out: EC50
# T1 sequence (P13569 with tags, fused parts or gaps DEL508-508): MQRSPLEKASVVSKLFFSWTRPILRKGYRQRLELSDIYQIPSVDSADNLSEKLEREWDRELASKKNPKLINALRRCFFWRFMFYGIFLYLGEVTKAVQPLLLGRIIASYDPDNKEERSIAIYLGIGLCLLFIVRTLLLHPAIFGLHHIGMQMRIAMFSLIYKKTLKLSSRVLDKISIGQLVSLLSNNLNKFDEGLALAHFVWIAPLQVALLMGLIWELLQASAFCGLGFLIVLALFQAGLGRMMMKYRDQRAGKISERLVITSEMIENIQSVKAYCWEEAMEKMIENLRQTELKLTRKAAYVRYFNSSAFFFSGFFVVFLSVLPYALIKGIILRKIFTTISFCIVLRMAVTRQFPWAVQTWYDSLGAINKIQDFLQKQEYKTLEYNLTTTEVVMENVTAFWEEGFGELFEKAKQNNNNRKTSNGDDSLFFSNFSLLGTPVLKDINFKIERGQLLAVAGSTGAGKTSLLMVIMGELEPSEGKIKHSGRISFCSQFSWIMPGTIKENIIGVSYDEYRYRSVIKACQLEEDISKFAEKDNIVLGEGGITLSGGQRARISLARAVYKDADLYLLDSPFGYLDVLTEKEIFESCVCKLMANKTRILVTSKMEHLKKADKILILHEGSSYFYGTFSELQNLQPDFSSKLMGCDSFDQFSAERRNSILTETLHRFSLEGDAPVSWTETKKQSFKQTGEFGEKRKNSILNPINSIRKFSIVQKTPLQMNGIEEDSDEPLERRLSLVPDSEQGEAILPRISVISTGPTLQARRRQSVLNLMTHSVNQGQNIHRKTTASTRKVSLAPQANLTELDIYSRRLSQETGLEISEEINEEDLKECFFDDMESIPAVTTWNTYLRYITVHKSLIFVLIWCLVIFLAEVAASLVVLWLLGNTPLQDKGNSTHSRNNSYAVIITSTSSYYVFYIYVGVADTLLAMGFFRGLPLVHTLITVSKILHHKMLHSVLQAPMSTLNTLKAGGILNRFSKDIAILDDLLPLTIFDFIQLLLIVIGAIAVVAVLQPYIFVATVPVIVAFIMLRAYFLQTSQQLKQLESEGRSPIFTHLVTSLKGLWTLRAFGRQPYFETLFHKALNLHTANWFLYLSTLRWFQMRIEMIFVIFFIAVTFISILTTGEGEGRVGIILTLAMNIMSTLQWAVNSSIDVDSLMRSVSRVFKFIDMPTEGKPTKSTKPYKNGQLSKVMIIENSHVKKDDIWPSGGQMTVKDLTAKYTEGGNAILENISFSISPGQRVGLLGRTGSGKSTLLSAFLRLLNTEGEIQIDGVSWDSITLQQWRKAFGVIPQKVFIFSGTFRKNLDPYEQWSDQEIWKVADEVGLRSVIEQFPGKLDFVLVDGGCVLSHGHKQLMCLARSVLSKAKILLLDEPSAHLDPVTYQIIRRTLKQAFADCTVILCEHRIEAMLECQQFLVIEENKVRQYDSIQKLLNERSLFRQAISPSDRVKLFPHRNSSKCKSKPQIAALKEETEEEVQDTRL
Structure (SMILES),"% Activation [1, 3] [%]","EC50 [1, 4] [µM]","% Activation [2, 5] [%]","EC50 [2, 6] [µM]",EC50 [1] [µM],EC50 [2] [µM]
"CS(=O)(=O)N1CCN(c2cc(C(=O)O)nc3c2c(C2CCC2)nn3-c2ccccc2)CC1 [compound 523, 3-cyclobutyl-4-[4-(methanesulfonyl)piperazin-1-yl]-1-phenyl-1H-pyrazolo[3,4-b]pyridine-6-carboxylic acid]",320.1,0.63,136.2,2.85,–,–
"COCCN(CCOC)c1ccc(-c2cc(C(=O)O)nc3c2c(C(C)C)nn3-c2ccnc(N3CCOCC3)c2)cn1 [compound 524, 4-{6-[bis(2-methoxyethyl)amino]pyridin-3-yl}-1-[2-(morpholin-4-yl)pyridin-4-yl]-3-(propan-2-yl)-1H-pyrazolo[3,4-b]pyridine-6-carboxylic acid]",354.25,0.261,134.7,0.454,–,–
"COCC1CCN(c2cc(C(=O)O)nc3c2c(C(C)C)nn3-c2ccnc(N3CCOCC3)c2)CC1 [compound 525, 4-[4-(methoxymethyl)piperidin-1-yl]-1-[2-(morpholin-4-yl)pyridin-4-yl]-3-(propan-2-yl)-1H-pyrazolo[3,4-b]pyridine-6-carboxylic acid]",311.3,0.936,232.2,0.416,–,–
"COCC1(OC)CCN(c2cc(C(=O)O)nc3c2c(C2CCC2)nn3-c2ccccc2)CC1 [compound 526, 3-cyclobutyl-4-[4-methoxy-4-(methoxymethyl)piperidin-1-yl]-1-phenyl-1H-pyrazolo[3,4-b]pyridine-6-carboxylic acid]",284.5,0.37,97.7,0.406,–,–
"O=C(O)c1cc(N2CC[C@H](F)C2)c2c(C3CCC3)nn(-c3ccccc3)c2n1 [compound 527, 3-cyclobutyl-4-[(3S)-3-fluoropyrrolidin-1-yl]-1-phenyl-1H-pyrazolo[3,4-b]pyridine-6-carboxylic acid]",291.2,1.03,100.1,1.16,–,–
"O=C(O)c1cc(N2CC(F)(F)C2)c2c(C3CCC3)nn(-c3ccccc3)c2n1 [compound 528, 3-cyclobutyl-4-(3,3-difluoroazetidin-1-yl)-1-phenyl-1H-pyrazolo[3,4-b]pyridine-6-carboxylic acid]",209.2,1.94,80.74,3.33,–,–
"O=C(O)c1cc(N2CC(N3CCOC3=O)C2)c2c(C3CCC3)nn(-c3ccccc3)c2n1 [compound 529, 3-cyclobutyl-4-[3-(2-oxo-1,3-oxazolidin-3-yl)azetidin-1-yl]-1-phenyl-1H-pyrazolo[3,4-b]pyridine-6-carboxylic acid]",126.7,> 10,5.039,> 10,–,–
"CCC1(F)CN(c2cc(C(=O)O)nc3c2c(C2CCC2)nn3-c2ccccc2)C1 [compound 530, 3-cyclobutyl-4-(3-ethyl-3-fluoroazetidin-1-yl)-1-phenyl-1H-pyrazolo[3,4-b]pyridine-6-carboxylic acid]",254.15,0.542,90.17,0.718,–,–
"O=C(O)c1cc(N2CCOC(CO)C2)c2c(C3CCC3)nn(-c3ccccc3)c2n1 (stereo not drawn) [compound 531, 3-cyclobutyl-4-[2-(hydroxymethyl)morpholin-4-yl]-1-phenyl-1H-pyrazolo[3,4-b]pyridine-6-carboxylic acid]",223.4,1.45,91.66,3.33,–,–
"COCCOCC1(F)CCN(c2cc(C(=O)O)nc3c2c(C2CCC2)nn3-c2ccccc2)C1 (stereo not drawn) [compound 532, 3-cyclobutyl-4-{3-fluoro-3-[(2-methoxyethoxy)methyl]pyrrolidin-1-yl}-1-phenyl-1H-pyrazolo[3,4-b]pyridine-6-carboxylic acid]",271.77,0.349,107.05,0.707,–,–
"CN(c1cc(C(=O)O)nc2c1c(C1CCC1)nn2-c1ccccc1)[C@H]1C[C@@H](O)C1 [compound 533, 3-cyclobutyl-4-[(cis-3-hydroxycyclobutyl)(methyl)amino]-1-phenyl-1H-pyrazolo[3,4-b]pyridine-6-carboxylic acid]",315.85,1.23,114.5,3.21,–,–
"O=C(O)c1cc(N2CC3(CCOC3)C2)c2c(C3CCC3)nn(-c3ccccc3)c2n1 [compound 534, 3-cyclobutyl-4-(6-oxa-2-azaspiro[3.4]octan-2-yl)-1-phenyl-1H-pyrazolo[3,4-b]pyridine-6-carboxylic acid]",281.95,0.893,111,3.33,–,–
"O=C(O)c1cc(N2CC[C@H](F)[C@H](O)C2)c2c(C3CCC3)nn(-c3ccccc3)c2n1 [compound 535, 3-cyclobutyl-4-[(3R,4S)-4-fluoro-3-hydroxypiperidin-1-yl]-1-phenyl-1H-pyrazolo[3,4-b]pyridine-6-carboxylic acid]",205.9,1.41,56.68,2.85,–,–
"CC1(O)CN(c2cc(C(=O)O)nc3c2c(C2CCC2)nn3-c2ccccc2)C1 [compound 536, 3-cyclobutyl-4-(3-hydroxy-3-methylazetidin-1-yl)-1-phenyl-1H-pyrazolo[3,4-b]pyridine-6-carboxylic acid]",209.35,2.47,49.72,3.33,–,–
"O=C(O)c1cc(N2CCC3(CCNC3=O)C2)c2c(C3CCC3)nn(-c3ccccc3)c2n1 (stereo not drawn) [compound 537, 3-cyclobutyl-4-(6-oxo-2,7-diazaspiro[4.4]nonan-2-yl)-1-phenyl-1H-pyrazolo[3,4-b]pyridine-6-carboxylic acid]",191.2,3.33,45.36,3.33,–,–
"O=C(O)c1cc(N2CC(F)(F)C[C@H]2CO)c2c(C3CCC3)nn(-c3ccccc3)c2n1 [compound 538, 3-cyclobutyl-4-[(2S)-4,4-difluoro-2-(hydroxymethyl)pyrrolidin-1-yl]-1-phenyl-1H-pyrazolo[3,4-b]pyridine-6-carboxylic acid]",312.05,1.54,124.6,2.43,–,–
"O=C(CN1CCN(c2cc(C(=O)O)nc3c2c(C2CCC2)nn3-c2ccccc2)CC1)NC1CCCCC1 [compound 540, 3-cyclobutyl-4-{4-[2-(cyclohexylamino)-2-oxoethyl]piperazin-1-yl}-1-phenyl-1H-pyrazolo[3,4-b]pyridine-6-carboxylic acid]",314.05,0.324,142.2,0.452,–,–
"O=C(O)c1cc(N2CC[C@@H](F)C2)c2c(C3CCC3)nn(-c3ccccc3)c2n1 [compound 541, 3-cyclobutyl-4-[(3R)-3-fluoropyrrolidin-1-yl]-1-phenyl-1H-pyrazolo[3,4-b]pyridine-6-carboxylic acid]",287.85,0.799,120.7,0.988,–,–
"COC1CN(c2cc(C(=O)O)nc3c2c(C2CCC2)nn3-c2ccccc2)C1 [compound 542, 3-cyclobutyl-4-(3-methoxyazetidin-1-yl)-1-phenyl-1H-pyrazolo[3,4-b]pyridine-6-carboxylic acid]",290.6,1.78,104.6,1.84,–,–
"O=C(O)c1cc(N2CCC3(CC2)CC(O)C3)c2c(C3CCC3)nn(-c3ccccc3)c2n1 [compound 543, 3-cyclobutyl-4-(2-hydroxy-7-azaspiro[3.5]nonan-7-yl)-1-phenyl-1H-pyrazolo[3,4-b]pyridine-6-carboxylic acid]",304.9,0.242,129.15,0.304,–,–
"O=C(O)c1cc(N2CCC[C@@H](CO)C2)c2c(C3CCC3)nn(-c3ccccc3)c2n1 [compound 544, 3-cyclobutyl-4-[(3R)-3-(hydroxymethyl)piperidin-1-yl]-1-phenyl-1H-pyrazolo[3,4-b]pyridine-6-carboxylic acid]",273,–,129.55,–,0.457,0.803
"O=C(O)c1cc(N2CCCOCC2)c2c(C3CCC3)nn(-c3ccccc3)c2n1 [compound 545, 3-cyclobutyl-4-(1,4-oxazepan-4-yl)-1-phenyl-1H-pyrazolo[3,4-b]pyridine-6-carboxylic acid]",247.05,0.563,109.4,1.15,–,–
"O=C(O)c1cc(N2CCC(O)(CCO)CC2)c2c(C3CCC3)nn(-c3ccccc3)c2n1 [compound 546, 3-cyclobutyl-4-[4-hydroxy-4-(2-hydroxyethyl)piperidin-1-yl]-1-phenyl-1H-pyrazolo[3,4-b]pyridine-6-carboxylic acid]",246.6,3.33,87.52,3.33,–,–
"COCC1CCN(c2cc(C(=O)O)nc3c2c(C(C)C)nn3CC2CCC2)CC1 [compound 547, 1-(cyclobutylmethyl)-4-[4-(methoxymethyl)piperidin-1-yl]-3-(propan-2-yl)-1H-pyrazolo[3,4-b]pyridine-6-carboxylic acid]",318.7,1.88,120.7,3.33,–,–

# From US9796711B2, “Substituted pyrazolo[3,4-b]pyridin-6-carboxylic acids and method of use” (AbbVie S.àr.l., priority 2015, dated 2017)
